Where two headings read alike, the source gives them in different places. Marks after values point to notes of the source that are not given here. Square brackets hold non-standard residues; d marks the D form. Peptide text beside a SMILES is read from it. Nspe = C[C@H](NCC(=O)O)c1ccccc1; NDecylGly = CCCCCCCCCCNCC(=O)O; NPentylGly = CCCCCNCC(=O)O; Nlys = NCCCCNCC(=O)O
Tests used:
[1] = tested on: Candida albicans (SC5314); format: cell-based, C. albicans
Experimental: Additionally, in order to characterize possible antifungal activity, a library of alkylated compounds was tested against C. albicans, a representative fungal strain.
Antifungal Assays. MICs were determined using the broth microdilution assay given by CLSI M27-A2 protocols. Candida albicans (SC5314) was grown on Sabouraud dextrose agar for 24 hours at 30° C. Cells were suspended in 0.145 M saline, and the cell concentration was adjusted to 3×10^6 cells/mL. After adjusting the cell concentration, the suspension was diluted 1:1000 with RPMI 1640 (with L-glutamine and without sodium bicarbonate, Invitrogen) buffered with 0.145 M 3-(N-morpholino) propanesulfonic acid (MOPS). Two-fold serial dilutions of peptoids, peptides, and amphotericin B (Calbiochem) were prepared in RPMI 1640 and mixed with an equal volume of the cell suspension in 96-well plates. The final testing concentrations for the peptoids and peptides were 0.20 to 100 μM, and concentrations for amphotericin B were 0.031 to 16 μM. Growth controls and sterility controls were also included. Plates were incubated for 48 hours at 35° C., and growth of C. albicans was inspected visually to determine the MICs. The MIC for each compound was defined as the lowest concentration with no visible fungal growth. Experiments were performed in duplicate on two separate days.

E. coli = format: cell-based
Experimental: (§1) Antibacterial assays. MICs were determined according to CLSI M7-A6 protocols in a 96-well microtiter plate. In test wells, 50 μL bacterial inoculum (5×10^5 CFU/ml) in Mueller-Hinton broth (MHB) was added to 50 μL peptoid solution in MHB (prepared by 1:2 serial dilutions). Positive controls contained 50 μL inoculum and 50 μL MHB without peptoid. […] MIC values reported were reproducible between three independent experimental replicates, each consisting of two parallel trials. Broad-spectrum antimicrobial susceptibility testing was performed against BSL2 pathogens by Nova Biologicals, Inc. (Conroe, Tex.).
(§2) Screening antibacterial assays. MICs were determined in 96-well microtiter plates in accordance with CLSI M7-A6 protocols. Peptoid solutions with 50 μL total volume were prepared using 2:1 serial dilutions. 50 μL of bacteria inoculum (1×10^6 CFU/mL) prepared in cation-adjusted Mueller-Hinton broth (CAMHB) was added to test wells. Control wells contained 100 μL MHB (no growth) or 50 μL inoculums with 50 μL MHB with no peptoid. […] Reported values were reproducible over three experiments, each containing two parallel trials.

B. subtilis = format: cell-based
Experimental: as §1, §2

human erythrocytes = assay: Hemolysis assay; format: cell-based; settings: for HD10 (10% hemolytic dose) / HD50 (50% hemolytic dose): red cells of human, 1 h
Procedure, shortened: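 Human erythrocytes from fresh heparinised blood, 20 vol % in PBS pH 7.4, mixed 1:1 with 2-fold serial peptoid dilutions; PBS as 0% and 0.2 vol % Triton X-100 as 100% hemolysis. Incubated 1 h at 37 °C, diluted, centrifuged 1200 g for 15 min; supernatant A350 read.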

[2] = MTS assay, metabolic inhibition; format: cell-based, mouse
Experimental: (§3) The potencies of all compounds were determined against representative Gram-negative (E. coli ATCC 35218) and Gram-positive (B. subtilis ATCC 6633) biosafety level 1 (BSL1) organisms. In addition to hemolytic activity, the conventional measure of toxicity to mammalian cells, the effect of each ampetoid on NIH 3T3 mouse fibroblast cells was determined using the MTS tetrazolium salt-based calorimetric assay. While hemolysis measures the degree to which erythrocytes are lysed, the MTS assay indirectly quantifies the extent to which cellular metabolic activity is inhibited.
MTS assays. NIH/3T3 cells (ATCC Corporation) cultured at 37° C. and 5% CO2 in complete Dulbecco's modified eagle's media (CDMEM) supplemented with 1% sodium pyruvate, 1% penicillin-streptomycin, 1.5 g/L NaHCO3, and 10% fetal bovine serum. Cells were seeded at a density of 5,000 cells per well for NIH/3T3 cells in 96-well plates (100 μl total volume). A peptoid solution plate (100 μL total volume per well) was prepared by serial dilution of aqueous peptoid stock solution in Hank's balanced salt solution (HBSS) media. The day-old cell monolayers were washed with HBSS and media was replaced with 100 μL HBSS. The contents of the peptoid solution plate were transferred onto corresponding wells of the cell monolayer plate, and 40 μL MTS reagent (Promega, Inc.) was added to each well. After incubating for 3 hours at 37° C., absorbance at 490 nm was determined. […] The average of six replicates is reported.

E. coli (ATCC 35218) = format: cell-based; settings: ATCC 35218
Experimental: (§4) Whereas the preceding generation of molecules was designed to elucidate structure function relationships of specific molecular parameters (chirality, length, hydrophobicity, etc.), another generation compounds were designed explicitly to explore effects on selectivity. Antimicrobial activity of these compounds was tested against bacterial strains E. coli (ATTC 35218) and B. subtilis (ATTC 6633) in cation-adjusted MHB using the microdilution protocols previously described. The sequences, antimicrobial activities, hemolytic activities, and metabolic inhibitory concentrations against NIH 3T3 mouse fibroblast cells are summarized in Table 3 and the rationale of their design is described below.
as §3, §2

B. subtilis (ATCC 6633) = format: cell-based; settings: ATCC 6633
Experimental: as §4, §3, §2

Structure (SMILES) | C. albicans MIC ([1]; SC5314) [µM] | E. coli MIC (E. coli) | B. subtilis MIC (B. subtilis) | C. albicans MIC ([1]; SC5314, 48 h) [µM] | IC50 [2] [µM] | E. coli MIC (E. coli (ATCC 35218)) [µM] | B. subtilis MIC (B. subtilis (ATCC 6633)) [µM] | HD10 (human erythrocytes) | HD50 (human erythrocytes) | HD10 (10% hemolytic dose) (human erythrocytes) | HD50 (50% hemolytic dose) (human erythrocytes)
CCCCCCCCCCNCC(=O)N(CCCCN)CC(=O)N(CC(=O)N(CC(=O)N(CCCCN)CC(=O)N(CC(=O)N(CC(=O)N(CCCCN)CC(=O)N(CC(=O)N(CC(N)=O)[C@@H](C)c1ccccc1)[C@@H](C)c1ccccc1)[C@@H](C)c1ccccc1)[C@@H](C)c1ccccc1)[C@@H](C)c1ccccc1)[C@@H](C)c1ccccc1 [C10-19 mer] (H-[NDecylGly][Nlys][Nspe][Nspe][Nlys][Nspe][Nspe][Nlys][Nspe][Nspe]-NH2) | 3.1 | 6.3 µM | 3.1 µM | – | – | – | – | 12 µM | 40 µM | – | –
CCCCCNCC(=O)N(CCCCN)CC(=O)N(CC(=O)N(CC(=O)N(CCCCN)CC(=O)N(CC(=O)N(CC(=O)N(CCCCN)CC(=O)N(CC(=O)N(CC(=O)N(CCCCN)CC(=O)N(CC(=O)N(CC(N)=O)[C@@H](C)c1ccccc1)[C@@H](C)c1ccccc1)[C@@H](C)c1ccccc1)[C@@H](C)c1ccccc1)[C@@H](C)c1ccccc1)[C@@H](C)c1ccccc1)[C@@H](C)c1ccccc1)[C@@H](C)c1ccccc1 [C5-1] (H-[NPentylGly][Nlys][Nspe][Nspe][Nlys][Nspe][Nspe][Nlys][Nspe][Nspe][Nlys][Nspe][Nspe]-NH2) | 6.3 | 6.3 µM | 1.6 µM | – | – | – | – | 10 µM | 40 µM | – | –
CCCCCCCCCCNCC(=O)N(CCCCN)CC(=O)N(CC(=O)N(CC(=O)N(CCCCN)CC(=O)N(CC(=O)N(CC(=O)N(CCCCN)CC(=O)N(CC(=O)N(CC(=O)N(CCCCN)CC(=O)N(CC(=O)N(CC(N)=O)[C@@H](C)c1ccccc1)[C@@H](C)c1ccccc1)[C@@H](C)c1ccccc1)[C@@H](C)c1ccccc1)[C@@H](C)c1ccccc1)[C@@H](C)c1ccccc1)[C@@H](C)c1ccccc1)[C@@H](C)c1ccccc1 [C10-1] (H-[NDecylGly][Nlys][Nspe][Nspe][Nlys][Nspe][Nspe][Nlys][Nspe][Nspe][Nlys][Nspe][Nspe]-NH2) | 1.6 | 12.5 µM | 1.6 µM | – | – | – | – | 8 µM | 27 µM | – | –
CCCCCNCC(=O)N(CCCCN)CC(=O)N(CC(=O)N(CC(=O)N(CCCCN)CC(=O)N(CC(=O)N(CC(=O)N(CCCCN)CC(=O)N(CC(=O)N(CC(N)=O)[C@@H](C)c1ccccc1)[C@@H](C)c1ccccc1)[C@@H](C)c1ccccc1)[C@@H](C)c1ccccc1)[C@@H](C)c1ccccc1)[C@@H](C)c1ccccc1 [C5-19 mer] (H-[NPentylGly][Nlys][Nspe][Nspe][Nlys][Nspe][Nspe][Nlys][Nspe][Nspe]-NH2) | 12.5 | 16.3 µM | 1.0 µM | – | – | – | – | 65 µM | > 200 µM | – | –
C[C@@H](c1ccccc1)N(CC(=O)N(CCCCN)CC(=O)N(CC(=O)N(CC(=O)N(CCCCN)CC(=O)N(CC(=O)N(CC(=O)N(CCCCN)CC(N)=O)[C@@H](C)c1ccccc1)[C@@H](C)c1ccccc1)[C@@H](C)c1ccccc1)[C@@H](C)c1ccccc1)C(=O)CN(C(=O)CNCCCCN)[C@@H](C)c1ccccc1 [110mer, H-(Nlys-Nspe-Nspe)3-Nlys-NH2] (H-[Nlys][Nspe][Nspe][Nlys][Nspe][Nspe][Nlys][Nspe][Nspe][Nlys]-NH2) | – | – | – | – | 54 | 12.5 | 0.78 | – | >200/>200 μM | – | –
CCCCCCCCCCNCC(=O)N(CCCCN)CC(=O)N(CC(=O)N(CC(=O)N(CCCCN)CC(N)=O)[C@@H](C)c1ccccc1)[C@@H](C)c1ccccc1 [C10-14 mer] (H-[NDecylGly][Nlys][Nspe][Nspe][Nlys]-NH2) | 100 | >100 µM | 6.3 µM | – | – | – | – | >200/>200 μM | >200/>200 μM | – | –

Further lines, with some results ahead:

C. albicans MIC ([1]; SC5314) [µM] | E. coli MIC (E. coli) | B. subtilis MIC (B. subtilis) | C. albicans MIC ([1]; SC5314, 48 h) [µM] | IC50 [2] [µM] | E. coli MIC (E. coli (ATCC 35218)) [µM] | B. subtilis MIC (B. subtilis (ATCC 6633)) [µM] | Structure (SMILES) | HD10 (human erythrocytes) | HD50 (human erythrocytes) | HD10 (10% hemolytic dose) (human erythrocytes) | HD50 (50% hemolytic dose) (human erythrocytes)
6.25 | 6.3 µM | 1.6 µM | – | – | – | – | CCCCCCCCCCNCC(=O)N(CCCCN)CC(=O)N(CC(=O)N(CC(=O)N(CCCCN)CC(=O)N(CC(=O)N(CC(N)=O)[C@@H](C)c1ccccc1)[C@@H](C)c1ccccc1)[C@@H](C)c1ccccc1)[C@@H](C)c1ccccc1 [C10-16 mer] (H-[NDecylGly][Nlys][Nspe][Nspe][Nlys][Nspe][Nspe]-NH2) | 30 µM | 80 µM | – | –
100 | >200 µM | 3.1 µM | – | – | – | – | CCCCCNCC(=O)N(CCCCN)CC(=O)N(CC(=O)N(CC(=O)N(CCCCN)CC(=O)N(CC(=O)N(CC(N)=O)[C@@H](C)c1ccccc1)[C@@H](C)c1ccccc1)[C@@H](C)c1ccccc1)[C@@H](C)c1ccccc1 [C5-16 mer] (H-[NPentylGly][Nlys][Nspe][Nspe][Nlys][Nspe][Nspe]-NH2) | >200/>200 μM | >200/>200 μM | – | –
– | 25 µM | 1.6 µM | 15.6 | – | – | – | C[C@@H](c1ccccc1)N(CC(N)=O)C(=O)CN(C(=O)CN(CCCCN)C(=O)CN(C(=O)CN(C(=O)CN(CCCCN)C(=O)CN(C(=O)CN(C(=O)CNCCCCN)[C@@H](C)c1ccccc1)[C@@H](C)c1ccccc1)[C@@H](C)c1ccccc1)[C@@H](C)c1ccccc1)[C@@H](C)c1ccccc1 [19 mer, H-(Nlys-Nspe-Nspe)3-NH2] (H-[Nlys][Nspe][Nspe][Nlys][Nspe][Nspe][Nlys][Nspe][Nspe]-NH2) | 150 µM | > 200 µM | >150/>150 μM | >150/>150 μM
– | 27* μM | 27* μM | >100 | – | – | – | C[C@@H](c1ccccc1)N(CC(N)=O)C(=O)CN(C(=O)CN(CCCCN)C(=O)CN(C(=O)CN(C(=O)CNCCCCN)[C@@H](C)c1ccccc1)[C@@H](C)c1ccccc1)[C@@H](C)c1ccccc1 [16 mer, H-(Nlys-Nspe-Nspe)2-NH2] (H-[Nlys][Nspe][Nspe][Nlys][Nspe][Nspe]-NH2) | >220/>220 μM | >220/>220 μM | >220/>220 μM | >220/>220 μM

From US20100036088A1, “Selective poly-N-substituted glycine antibiotics” (priority 2008, published 2010)
